# Measured values taken from patent US3957987A, “Compositions containing a carbonamidoquinoxaline-di-N-oxide and method of using same” (Bayer Aktiengesellschaft, priority 1971, dated 1976).
# Assays:
# [1] = test system: Klebsiella 63; test: Minimum inhibitory concentration in vitro, Klebsiella 63; type: cell-based
# From the text: (§1) As representative of the spectrum of antimicrobial activity for these compounds, the following representative minimum inhibitory concentrations shown on Tables A, B and C can be noted:
# (§2) Minimum Inhibitory Concentrations In Vitro, in μg/ml of Medium
# [2] = test system: Klebsiella 8085; test: Minimum inhibitory concentration in vitro, Klebsiella 8085; type: cell-based
# From the text: as §1, §2
# [3] = test system: Alcaligenes faecalis ATCC; test: Minimum inhibitory concentration, Alcaligenes faecalis ATCC; type: cell-based
# [4] = test system: Mycoplasma S6; test: Minimum inhibitory concentration, Mycoplasma S6; type: cell-based
# [5] = test system: Clostridium tetani; test: microbe, parasite or virus in culture; type: cell-based; conditions: read-out: minimum inhibitory concentration
# [6] = test system: Aeromonas liquefaciens; test: Minimum inhibitory concentration, Aeromonas liquefaciens; type: cell-based; conditions: Aeromonas hydrophila
# [7] = test system: Mycoplasma gran; test: Minimum inhibitory concentration, Mycoplasma gran; type: cell-based
# [8] = test system: Bordetella bronchiseptica; test: Minimum inhibitory concentration, Bordetella bronchiseptica; type: cell-based
# [9] = test system: Streptococcus pyogenes; test: Minimum inhibitory concentration in vitro, Streptococcus pyogenes; type: cell-based
# From the text: as §1, §2
# [10] = test system: Staphylococcus aureus 133; test: Minimum inhibitory concentration in vitro, Staphylococcus aureus 133; type: cell-based
# From the text: as §1, §2
# [11] = test system: Mycoplasma MS; test: Minimum inhibitory concentration, Mycoplasma MS; type: cell-based
# From the text: (§3) As representative of the spectrum of antimicrobial activity for these compounds, the following representative minimum inhibitory concentrations shown on Tables A, B and C can be noted: […]
# [12] = test system: Clostridium botulinum; test: microbe, parasite or virus in culture; type: cell-based; conditions: read-out: minimum inhibitory concentration
# [13] = test system: Mycobacterium species; test: Minimum inhibitory concentration, Mycobacterium species; type: cell-based
# From the text: as §3
# [14] = test system: Pasteurella multocida ATCC; test: Minimum inhibitory concentration, Pasteurella multocida ATCC; type: cell-based
# [15] = test system: Escherichia coli C 165; test: Minimum inhibitory concentration in vitro, Escherichia coli C 165; type: cell-based; conditions: C165
# From the text: as §1, §2
# [16] = test system: Escherichia coli A 261; test: Minimum inhibitory concentration in vitro, Escherichia coli A 261; type: cell-based; conditions: A261
# From the text: as §1, §2
# [17] = test system: Proteus vulgaris; test: Minimum inhibitory concentration in vitro, Proteus vulgaris specieis; type: cell-based
# From the text: as §1, §2
# [18] = Chick Fattening Test; type: in vivo; conditions: for Relative Weight Increase (%) after 14 days / Relative Weight Increase (%) after 28 days: control 100.0
# From the text: The use of these compounds as feed additives can be seen from the following feeding experiments (Table D).
# Chicks in groups of 12 were kept in cages and supplied with water ad libitum and a complete chick feed into which was intimately mixed the indicated amount of the test compound.
Compound,MIC [1] [µg/mL],MIC [2] [µg/mL],MIC [3] [µg/mL],MIC [4] [µg/mL],MIC [5] [µg/mL],MIC [6] [µg/mL],MIC [7] [µg/mL],MIC [8] [µg/mL],MIC [9] [µg/mL],MIC [10] [µg/mL],MIC [11] [µg/mL],MIC [12] [µg/mL],MIC [13] [µg/mL],MIC [14] [µg/mL],further results
COC(=O)NN=Cc1c(C(=O)N2CCCCC2)[n+]([O-])c2ccccc2[n+]1[O-] [Example 10],100,100,100,10,10,100,10,100,100,100,100,10,100,1,–
CCN(CC)C(=O)c1c(C=NNC(=O)OC)[n+]([O-])c2ccccc2[n+]1[O-] [Example 11],100,100,100,10,10,100,10,100,100,100,100,10,100,1,–
COC(=O)NN=Cc1c(C(=O)N2CCCC2)[n+]([O-])c2ccccc2[n+]1[O-] [Example 12],100,100,100,10,10,100,10,100,100,10,100,10,100,1,MIC [15]: 100 µg/mL
CNC(=O)c1c(C=NNC(=O)OC)[n+]([O-])c2ccccc2[n+]1[O-] [Example 13],100,10,100,100,100,100,100,100,100,100,–,100,100,100,MIC [16]: 100 µg/mL; MIC [17]: 100 µg/mL; MIC [15]: 100 µg/mL
COC(=O)NN=Cc1c(C(=O)NCCO)[n+]([O-])c2ccccc2[n+]1[O-] [Example 14],–,100,100,100,100,100,100,100,100,100,–,100,–,100,–
CCCNC(=O)c1c(C=NNC(=O)OC)[n+]([O-])c2ccccc2[n+]1[O-] [Example 15],100,100,100,100,100,100,100,100,10,100,–,100,100,100,MIC [16]: 100 µg/mL; MIC [15]: 100 µg/mL
COC(=O)NN=Cc1c(C(=O)NC2CCCCC2)[n+]([O-])c2ccccc2[n+]1[O-] [Example 16],–,100,100,100,100,100,100,100,100,100,–,100,–,100,–
COC(=O)NN=Cc1c(C(=O)NC(C)C)[n+]([O-])c2ccccc2[n+]1[O-] [Example 17],100,10,100,100,100,100,100,100,100,100,–,100,100,100,MIC [16]: 100 µg/mL; MIC [15]: 100 µg/mL
O=C(NCCO)c1c(C=NO)[n+]([O-])c2ccccc2[n+]1[O-] [Example 20],–,–,100,100,100,100,100,100,–,–,–,100,100,100,"Relative Weight Increase (%) after 14 days ([18]; Test 1, 50 ppm in feed): 107.4%; Absolute Weight Increase (g) of each animal after 14 days ([18]; Test 1, 50 ppm in feed, control 111.5): 119.9 g; Average Weight of each animal after 14 days ([18]; Test 1, 50 ppm in feed, control 170.8, initial weight 59.3 g): 179.2; Relative Weight Increase (%) after 28 days ([18]; Test 1, 50 ppm in feed): 104.1%; Absolute Weight Increase (g) of each animal after 28 days ([18]; Test 1, 50 ppm in feed, control 275.9): 287.3 g; Average Weight of each animal after 28 days ([18]; Test 1, 50 ppm in feed, control 335.2, initial weight 59.3 g): 346.6; Relative Weight Increase (%) after 14 days ([18]; Test 2, 10 ppm in feed): 104.5%; Absolute Weight Increase (g) of each animal after 14 days ([18]; Test 2, 10 ppm in feed, control 109.2): 114.2 g; Average Weight of each animal after 14 days ([18]; Test 2, 10 ppm in feed, control 168.3, initial weight 59.1 g): 173.3; Relative Weight Increase (%) after 28 days ([18]; Test 2, 10 ppm in feed): 102.2%; Absolute Weight Increase (g) of each animal after 28 days ([18]; Test 2, 10 ppm in feed, control 292.5): 299.2 g; Average Weight of each animal after 28 days ([18]; Test 2, 10 ppm in feed, control 351.6, initial weight 59.1 g): 358.3; Relative Weight Increase (%) after 14 days ([18]; Test 2, 20 ppm in feed): 106.8%; Absolute Weight Increase (g) of each animal after 14 days ([18]; Test 2, 20 ppm in feed, control 109.2): 116.7 g; Average Weight of each animal after 14 days ([18]; Test 2, 20 ppm in feed, control 168.3, initial weight 59.1 g): 175.8; Relative Weight Increase (%) after 28 days ([18]; Test 2, 20 ppm in feed): 102.8%; Absolute Weight Increase (g) of each animal after 28 days ([18]; Test 2, 20 ppm in feed, control 292.5): 300.9 g; Average Weight of each animal after 28 days ([18]; Test 2, 20 ppm in feed, control 351.6, initial weight 59.1 g): 360.0"
COC(=O)NN=Cc1c(C(=O)N2CCOCC2)[n+]([O-])c2ccccc2[n+]1[O-] [Example 21],–,–,100,1,100,1,0.1,100,–,–,10,1,100,10,–
CCNC(=O)c1c(C=NO)[n+]([O-])c2ccccc2[n+]1[O-] [Example 22],–,–,100,10,100,0.1,10,100,–,–,100,1,100,10,–
CCCNC(=O)c1c(C=NO)[n+]([O-])c2ccccc2[n+]1[O-] [Example 23],–,–,100,100,100,100,1,100,–,–,100,1,100,100,–
CC(C)NC(=O)c1c(C=NO)[n+]([O-])c2ccccc2[n+]1[O-] [Example 24],–,–,100,100,100,100,1,100,–,–,100,1,100,100,–
CNC(=O)c1c(C=NNC(=O)OCCO)[n+]([O-])c2ccccc2[n+]1[O-] [Example 25],–,–,100,100,100,100,1,100,–,–,100,1,–,100,–
CCOC(=O)NN=Cc1c(C(=O)NC)[n+]([O-])c2ccccc2[n+]1[O-] [Example 26],100,10,100,100,100,100,0.1,100,100,100,100,1,–,100,MIC [15]: 100 µg/mL
CCOC(=O)NN=Cc1c(C(=O)NCCO)[n+]([O-])c2ccccc2[n+]1[O-] [Example 27],–,100,100,100,100,100,100,100,100,–,–,100,–,100,–
O=C(NN=Cc1c(C(=O)NCCO)[n+]([O-])c2ccccc2[n+]1[O-])OCCO [Example 28],–,–,100,100,100,100,100,100,–,–,–,100,–,100,–
O=C(NCCO)c1c(C=NNC(=O)N2CCOCC2)[n+]([O-])c2ccccc2[n+]1[O-] [Example 29],–,–,100,100,100,100,100,100,–,–,–,100,40,100,–
